The text below walks through data of ChEMBL document CHEMBL5154658, “Discovery of quinazoline derivatives as novel small-molecule inhibitors targeting the programmed cell death-1/programmed cell death-ligand 1 (PD-1/PD-L1) interaction” (Eur J Med Chem, 2022).

The ΔTm is the change in melting temperature against a reference sample. For orientation: IC50 means the concentration that inhibits the measured activity by half.

Structures are written as SMILES.

T1 sequence (Q15116 whole entry): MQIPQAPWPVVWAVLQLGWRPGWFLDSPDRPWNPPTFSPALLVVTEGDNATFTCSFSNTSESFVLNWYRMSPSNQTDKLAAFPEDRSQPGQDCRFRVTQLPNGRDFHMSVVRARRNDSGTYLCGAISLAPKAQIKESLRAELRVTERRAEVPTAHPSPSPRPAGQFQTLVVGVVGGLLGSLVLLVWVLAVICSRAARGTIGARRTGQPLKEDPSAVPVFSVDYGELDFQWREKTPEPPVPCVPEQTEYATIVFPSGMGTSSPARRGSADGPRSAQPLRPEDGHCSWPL
T1 sequence (Q9NZQ7 whole entry): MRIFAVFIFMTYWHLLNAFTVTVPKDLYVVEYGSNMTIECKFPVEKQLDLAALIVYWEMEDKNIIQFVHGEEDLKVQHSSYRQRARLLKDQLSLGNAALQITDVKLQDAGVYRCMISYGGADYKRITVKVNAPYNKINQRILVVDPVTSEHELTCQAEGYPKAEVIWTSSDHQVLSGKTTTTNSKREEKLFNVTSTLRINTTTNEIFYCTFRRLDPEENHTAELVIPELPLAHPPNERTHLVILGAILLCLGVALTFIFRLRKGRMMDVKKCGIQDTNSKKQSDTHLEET

The first data set deals with Programmed cell death 1 ligand 1 (Homo sapiens) (UniProt Q9NZQ7). Description: Binding affinity to human PD-L1 assessed as change in melting temperature at 10 uM by thermal shift based DSF assay.
Chain of Programmed cell death 1 ligand 1 (Homo sapiens) (Q9NZQ7 whole entry): as above
Details: not given
With `CC(CO)(CO)NCc1cc(Cl)c(Oc2ncnc3c(-c4ccc5c(c4)OCCO5)cccc23)cc1OCc1cncc(C#N)c1`, the thermal shift (ΔTm) is 2.35 °C.

System in another data set: not listed separately
As to the kind of experiment: Cytotoxicity against human PBMC cells assessed as reduction in cell growth incubated for 72 hrs by CCK8 assay. Type of data set: toxicity, cell-based.
Details: not given
A general note: Tetrazolium assays rely on reduction of a dye to a coloured formazan, in cell work by metabolically active cells.
With `CC(CO)(CO)NCc1cc(Cl)c(Oc2ncnc3c(-c4ccc5c(c4)OCCO5)cccc23)cc1OCc1cncc(C#N)c1`, the IC50 at 72 h stood at 12400 nM. The same measure, in the same setting: the figure for `N#Cc1cncc(COc2cc(Oc3ncnc4c(-c5ccc6c(c5)OCCO6)cccc34)c(Cl)cc2CNC(CO)CO)c1` is 5310 nM.

In another data set the target is Programmed cell death 1 ligand 1 (Homo sapiens) (UniProt Q9NZQ7). Description: Binding affinity to human PD-L1 assessed as change in melting temperature at 20 uM by thermal shift based DSF assay.
Details: not given
(DSF heats the sample and reads unfolding from a dye or from intrinsic fluorescence.)
On to `CC(CO)(CO)NCc1cc(Cl)c(Oc2ncnc3c(-c4ccc5c(c4)OCCO5)cccc23)cc1OCc1cncc(C#N)c1`, for which the ΔTm amounted to 3.2 °C.

The next data set addresses T1, Programmed cell death protein 1/Programmed cell death 1 ligand 1 (Homo sapiens, UniProt Q15116+Q9NZQ7). As to the kind of experiment: Inhibition of PD-1/PD-L1 (unknown origin) interaction. It counts as protein-complex assay.
Details: not given
`CC(C)OC(=O)[C@H](CO)NCc1cc(Cl)c(OCc2cccc(-c3ccc4c(c3)OCCO4)c2Br)cc1OCc1cccnc1` displayed an IC50 of 10 nM.

Another data set concerns the target T1, Programmed cell death protein 1/Programmed cell death 1 ligand 1. Description: Inhibition of PD-1/PD-L1 interaction in human CD3+ T-cells co-cultured with Hep3B cells expressing OS8/hPD-L1 assessed as increase in IFN-gamma secretion at 2.22 uM measured after 72 hrs by ELISA. Also on record: scale not given: the % may be the effect or the level left.
Details: not given
With `CC(CO)(CO)NCc1cc(Cl)c(Oc2ncnc3c(-c4ccc5c(c4)OCCO5)cccc23)cc1OCc1cncc(C#N)c1`, the Activity was 820%. The same measure, in the same setting: the figure for `N#Cc1cncc(COc2cc(Oc3ncnc4c(-c5ccc6c(c5)OCCO6)cccc34)c(Cl)cc2CNC(CO)CO)c1` is 654%.

For another data set the target is unchanged. Description: Inhibition of C-terminal-Fc-tagged human recombinant PD-1 (25 to 167 residues)/C-terminal-His-tagged recombinant human PD-L1 (19 to 238 residues) interaction incubated for 40 mins by HTRF assay. It counts as protein-complex assay.
Details: not given
In the case of `Cc1c(-c2ccccc2)cccc1-c1nc2cc(CNCCO)ccc2o1`, the half-maximal inhibitory concentration (IC50) was at most 10 nM.

The target of a further data set is Programmed cell death 1 ligand 1 (Homo sapiens) (UniProt Q9NZQ7). Description: Binding affinity to human PD-L1 assessed as change in melting temperature at 50 uM by thermal shift based DSF assay.
Details: not given
With `CC(CO)(CO)NCc1cc(Cl)c(Oc2ncnc3c(-c4ccc5c(c4)OCCO5)cccc23)cc1OCc1cncc(C#N)c1`, the ΔTm was found to be 3.25 °C.

System in another data set: not listed separately
As to the kind of experiment: Cytotoxicity against human PBMC cells assessed as reduction in cell growth at 0.003 to 2.22 uM incubated for 72 hrs by CCK8 assay. Type of data set: toxicity, cell-based. The note with it: dose 0.003-2.22 µM.
In the case of `CC(CO)(CO)NCc1cc(Cl)c(Oc2ncnc3c(-c4ccc5c(c4)OCCO5)cccc23)cc1OCc1cncc(C#N)c1`, the Activity entry is “Non-Toxic”. On the same count and under the same terms, then `N#Cc1cncc(COc2cc(Oc3ncnc4c(-c5ccc6c(c5)OCCO6)cccc34)c(Cl)cc2CNC(CO)CO)c1`, with “Non-Toxic”.

System in the next data set: not listed separately
Description: Cytotoxicity against human PBMC cells assessed as reduction in cell growth at >2.22 uM incubated for 72 hrs by CCK8 assay. It counts as toxicity, cell-based.
Details: not given
For `CC(CO)(CO)NCc1cc(Cl)c(Oc2ncnc3c(-c4ccc5c(c4)OCCO5)cccc23)cc1OCc1cncc(C#N)c1`, the Activity result is “Toxic”.

`N#Cc1cncc(COc2cc(Oc3ncnc4c(-c5ccc6c(c5)OCCO6)cccc34)c(Cl)cc2CNC(CO)CO)c1`: the Activity result is “Toxic”.

Another data set concerns the target T1, Programmed cell death protein 1/Programmed cell death 1 ligand 1. Description: Inhibition of Tag2-PD-1/Tag1-PD-L1 (unknown origin) protein-protein interaction incubated for 15 mins by HTRF assay. Type of data set: protein-complex assay.
Details: not given
For orientation: Time-resolved FRET reads energy transfer from a long-lived donor to a nearby acceptor.
`CC(CO)(CO)NCc1cc(Cl)c(Oc2ncnc3c(-c4ccc5c(c4)OCCO5)cccc23)cc1OCc1cncc(C#N)c1` yielded a concentration for half-maximal inhibition (IC50) of 1.57 nM. The compound `N#Cc1cccc(COc2cc(Oc3ncnc4c(-c5ccccc5)cccc34)c(Cl)cc2CNCCO)c1` showed a 50% inhibitory concentration (IC50) of 78.5 nM.

`N#Cc1cncc(COc2cc(Oc3ncnc4c(-c5ccc6c(c5)OCCO6)cccc34)c(Cl)cc2CNCCO)c1`: 12.2 nM corresponded to half-maximal inhibition (IC50).

`N#Cc1cccc(COc2cc(Oc3ncnc4c(-c5ccccc5)cccc34)c(Cl)cc2CN2CCCC[C@@H]2C(=O)O)c1` registered a half-maximal inhibitory concentration (IC50) above 500 nM. Same read-out and setting: then `N#Cc1cccc(COc2cc(Oc3ncnc4c(-c5ccccc5)cccc34)c(Cl)cc2CN2CCCC[C@H]2C(=O)O)c1`, with above 500 nM; and `CC(C)(NCc1cc(Cl)c(Oc2ncnc3c(-c4ccc5c(c4)OCCO5)cccc23)cc1OCc1cccc(C#N)c1)C(=O)O`, with 88.6 nM.

`N#Cc1cncc(COc2cc(Oc3ncnc4c(-c5ccccc5)cccc34)c(Cl)cc2CNC(CO)CO)c1` showed a 50% inhibitory concentration (IC50) of 57.6 nM. `N#Cc1cccc(COc2cc(Oc3ncnc4c(-c5ccccc5)cccc34)c(Cl)cc2CNC(CO)CO)c1` returned an IC50 of 24.2 nM. The same measure, in the same setting: the figure for `CC(C)(NCc1cc(Cl)c(Oc2ncnc3c(-c4ccccc4)cccc23)cc1OCc1cccc(C#N)c1)C(=O)O` is 150 nM; for `CC(=O)NCCNCc1cc(Cl)c(Oc2ncnc3c(-c4ccc5c(c4)OCCO5)cccc23)cc1OCc1cccc(C#N)c1` it is above 500 nM; for `N#Cc1cccc(COc2cc(Oc3ncnc4c(-c5ccc6c(c5)OCCO6)cccc34)c(Cl)cc2CN2CCCC[C@@H]2C(=O)O)c1` it is 411 nM. On the same count and under the same terms, the figure for `N#Cc1cccc(COc2cc(Oc3ncnc4c(-c5ccc6c(c5)OCCO6)cccc34)c(Cl)cc2CNCCO)c1` is 22.4 nM. In turn, `N#Cc1cncc(COc2cc(Oc3ncnc4c(-c5ccc6c(c5)OCCO6)cccc34)c(Cl)cc2CNC(CO)CO)c1` displayed an IC50 of 5.37 nM. Compound `CC(=O)NCCNCc1cc(Cl)c(Oc2ncnc3c(-c4ccccc4)cccc23)cc1OCc1cncc(C#N)c1` yielded an IC50 of 187 nM. For the compound `N#Cc1cccc(COc2cc(Oc3ncnc4c(-c5ccc6c(c5)OCCO6)cccc34)c(Cl)cc2CN2CCCC[C@H]2C(=O)O)c1`, the concentration for half-maximal inhibition (IC50) was above 500 nM. Take `CC(CO)(CO)NCc1cc(Cl)c(Oc2ncnc3c(-c4ccc5c(c4)OCCO5)cccc23)cc1OCc1cccc(C#N)c1`: the IC50 is 18.8 nM.

As to `CC(=O)NCCNCc1cc(Cl)c(Oc2ncnc3c(-c4ccc5c(c4)OCCO5)cccc23)cc1OCc1cncc(C#N)c1`, half-maximal inhibition (IC50) was put at 96 nM. Still for that read-out and setting: the figure for `CC(CO)(CO)NCc1cc(Cl)c(Oc2ncnc3c(-c4ccccc4)cccc23)cc1OCc1cncc(C#N)c1` is 32.5 nM; for `CC(=O)NCCNCc1cc(Cl)c(Oc2ncnc3c(-c4ccccc4)cccc23)cc1OCc1cccc(C#N)c1` it is above 500 nM. On the same count and under the same terms, the figure for `N#Cc1cccc(COc2cc(Oc3ncnc4c(-c5ccc6c(c5)OCCO6)cccc34)c(Cl)cc2CNC(CO)CO)c1` is 31.1 nM; for `N#Cc1cncc(COc2cc(Oc3ncnc4c(-c5ccccc5)cccc34)c(Cl)cc2CNCCO)c1` it is 171 nM. Take `CC(CO)(CO)NCc1cc(Cl)c(Oc2ncnc3c(-c4ccccc4)cccc23)cc1OCc1cccc(C#N)c1`: half-maximal inhibition (IC50) required 22.9 nM.

Another data set has the same target. As to the kind of experiment: Inhibition of PD-1/PD-L1 interaction in CHO cells expressing PD-Ll/TCR cocultured with human Jurkat cells expressing PD-1 assessed as T-cell activation by measuring maximum relative luminescence intensity value at 10 uM incubated for 6 hrs by luciferase reporter gene assay. Type of data set: cell-based.
Details: not given
Take `CC(CO)(CO)NCc1cc(Cl)c(Oc2ncnc3c(-c4ccc5c(c4)OCCO5)cccc23)cc1OCc1cncc(C#N)c1`: the RLU came to 3120. `N#Cc1cncc(COc2cc(Oc3ncnc4c(-c5ccc6c(c5)OCCO6)cccc34)c(Cl)cc2CNC(CO)CO)c1`: the RLU was 3370.

Another data set has the same target. Description: Inhibition of PD-1/PD-L1 interaction in human CD3+ T-cells co-cultured with Hep3B cells expressing OS8/hPD-L1 assessed as increase in IFN-gamma secretion measured after 72 hrs by ELISA. The note with it: dose 0.082-2.222 µM, DDE = dose-dependent effect.
For the compound `CC(CO)(CO)NCc1cc(Cl)c(Oc2ncnc3c(-c4ccc5c(c4)OCCO5)cccc23)cc1OCc1cncc(C#N)c1`, the inhibition entry was “Dde”. Same read-out and setting: the entry for `N#Cc1cncc(COc2cc(Oc3ncnc4c(-c5ccc6c(c5)OCCO6)cccc34)c(Cl)cc2CNC(CO)CO)c1` is “Dde”.
